This passage reports Activity results from ChEMBL document CHEMBL2074067, “TP-search Transporter Database” (J Physiol, 1994).

For the data set, the target named is ATP-dependent translocase ABCB1 (Homo sapiens, UniProt P08183). As to the kind of experiment: TP_TRANSPORTER: transepithelial transport (basal to apical) in Caco-2 cells. Format: functional, cell-based. A general note: Caco-2 monolayers are a common model of the intestinal barrier.
ATP-dependent translocase ABCB1, sequence (P08183 whole entry): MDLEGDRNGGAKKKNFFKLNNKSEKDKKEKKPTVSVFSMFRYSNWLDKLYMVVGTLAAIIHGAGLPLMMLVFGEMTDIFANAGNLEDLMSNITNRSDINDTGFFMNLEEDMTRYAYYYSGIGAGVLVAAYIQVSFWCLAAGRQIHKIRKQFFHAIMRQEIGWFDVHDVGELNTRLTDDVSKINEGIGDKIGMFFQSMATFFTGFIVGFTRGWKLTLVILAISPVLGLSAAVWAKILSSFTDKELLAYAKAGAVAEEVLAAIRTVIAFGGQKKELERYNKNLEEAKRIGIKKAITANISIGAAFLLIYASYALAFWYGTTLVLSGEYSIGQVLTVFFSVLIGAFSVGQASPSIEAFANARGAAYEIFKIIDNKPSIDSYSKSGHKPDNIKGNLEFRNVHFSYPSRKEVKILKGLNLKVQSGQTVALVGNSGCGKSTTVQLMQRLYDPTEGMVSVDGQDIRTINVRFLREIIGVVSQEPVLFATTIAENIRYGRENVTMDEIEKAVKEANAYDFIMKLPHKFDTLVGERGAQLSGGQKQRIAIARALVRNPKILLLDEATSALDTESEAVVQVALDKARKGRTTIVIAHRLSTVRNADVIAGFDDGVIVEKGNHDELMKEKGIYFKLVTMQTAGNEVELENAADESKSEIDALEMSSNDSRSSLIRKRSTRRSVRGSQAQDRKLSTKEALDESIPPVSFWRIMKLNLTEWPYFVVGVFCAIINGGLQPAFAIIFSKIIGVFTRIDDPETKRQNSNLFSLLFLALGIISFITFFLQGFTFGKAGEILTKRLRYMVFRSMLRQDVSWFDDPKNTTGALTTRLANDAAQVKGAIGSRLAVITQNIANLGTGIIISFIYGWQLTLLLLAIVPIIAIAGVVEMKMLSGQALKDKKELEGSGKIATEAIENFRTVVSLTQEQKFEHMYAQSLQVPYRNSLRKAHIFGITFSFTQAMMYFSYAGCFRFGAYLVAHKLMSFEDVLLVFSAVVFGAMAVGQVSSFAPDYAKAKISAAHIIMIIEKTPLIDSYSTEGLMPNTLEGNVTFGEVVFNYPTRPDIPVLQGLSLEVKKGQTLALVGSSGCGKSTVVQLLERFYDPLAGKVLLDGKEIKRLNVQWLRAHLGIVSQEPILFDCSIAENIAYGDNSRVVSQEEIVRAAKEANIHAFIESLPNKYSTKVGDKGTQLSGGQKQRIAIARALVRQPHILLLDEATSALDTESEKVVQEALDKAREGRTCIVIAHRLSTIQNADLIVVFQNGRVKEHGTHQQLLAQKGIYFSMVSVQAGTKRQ

Regarding `CNC(=C[N+](=O)[O-])NCCSCc1ccc(CN(C)C)o1` [RANITIDINE], the Activity result was “substrate [+]”.
